The values below come from patent publication US20020045764A1, “Tubulin binding compounds (COBRA)” (Parker Hughes Institute, priority 1998, published 2002).

One test addresses T1, Bovine brain tubulin (Bos taurus, UniProt P81947+Q6B856).
T1 construct: purchased Sigma, St. Louis, Mo; host or cells: bovine brain (tissue-purified)
Put plainly: Tubulin turbidity assay (GTP-induced tubulin polymerization). Particulars: 1 mg/ml tubulin, 1 mM GTP, 37° C., OD 350 nm. The test is classed as biochemical. Here is the method:
Bovine brain tubulin (Sigma, St. Louis, Mo.) was used in standard turbidity assays to test the effects of compounds COBRA-1 and COBRA-2 as well as control compounds on GTP-induced tubulin polymerization. Compounds (in 1% DMSO) were added to tubulin (1 mg/ml, 0.1M MES, 1 mM EGTA, 0.5 mM MgCl2, 0.1 mM EDTA, 2.5M glycerol, 1 μg/ml leupeptin, 1 μg/ml aprotinin, pH 6.5) followed by stimulation of polymerization with 1 mM GTP at 2 minutes and 1 mM taxol at 30 minutes. Optical density was measured using a Becton Dickinson UV spectrophotometer (350 nm) using a thermostated cuvette holder to keep the reaction at 37° C. Readings obtained from the spectro-photometer were standardized by subtracting the background absorbance of the compound in water from the sample reading following drug addition.
To test the latitude of the structure at the opposite end of the molecule from the long chain (head region), three new COBRA compounds were synthesized according to the schemes shown below: COBRA-3, COBRA-4, and COBRA-5. Each of these compounds was then tested for tubulin depolymerization activity, using the tubidity assay described in the Examples above.
Each of these compounds was assayed for effects on GTP-dependent tubulin polymerization, using the methods described above.

The subject of test [1] is BT-20 breast cancer cells. As to the kind of experiment: Cytotoxicity by confocal microscopy (tubulin immunofluorescence). The format is cell-based, human. Here is the method:
(§1) Cells were incubated at 37° C. for the indicated time periods with the title compounds. At the end of the incubation, cells were washed twice with PBS and fixed in 2% paraformaldehyde. The cells were permeabilized and non-specific binding sites were blocked with 2.5% BSA in PBS containing 0.1% Triton X-100 for 30 minutes. Tubulin expression was examined by immunofluorescence using a monoclonal antibody against α-tubulin (Sigma Chemical Co, St. Louis, Mo.) at a dilution of 1:1000 and an anti-mouse IgG conjugated to FITC. Cells were washed in PBS and counterstained with toto-3 (Molecular Probes Inc., Eugene, Oreg.) for 10 minutes at a dilution of 1:1000. Cells were washed again with PBS and the coverslips were mounted with Vectashield (Vector Labs, Burlingame, Calif.) and viewed with a confocal microscope (Bio-Rad MRC 1024) mounted in a Nikon Labhophot upright microscope. Digital images were saved on a Jaz disk and processed with Adobe Photoshop software (Adobe Systems, Mountain View, Calif.).
(§2) The ultrastructural changes in human breast and glioblastoma cancer cells treated with COBRA-1 or COBRA-2 were examined by confocal microscopy and by transmission electron microscopy, using methods previously reported^19.

A further test deals with U373 brain tumor cells. The description is as above. The format is cell-based, human. Here is the method:
as §1, §2

A further test has as its system MDA-MB-231. Put plainly: MTT assay. The format is cell-based, human. Particulars: Homo sapiens, 24-36 hours. The procedure:
(§3) The antiproliferative activity of […] and the control mono-THF containing compounds 8.2, 8.3, and 8.4 was examined against a panel of 5 different human tumor cell lines using standard MTT (3-[4,5-dimethylthiazol-2-yl]-2,5-diphenyl tetrazolium bromide) assays^18 (Boehringer Mannheim Corp., Indianapolis, Ind.).
(§4) Briefly, exponentially growing brain tumor cells were seeded into a 96-well plate at a density of 2.5×10^4 cells/well and incubated for 36 hours at 37° C. prior to drug exposure. On the day of treatment, culture medium was carefully aspirated from the wells and replaced with fresh medium containing the test or control compounds at concentrations ranging from 0.1 to 250 μM. Triplicate wells were used for each treatment. The cells were incubated with the various compounds for 24-36 hours at 37° C. in a humidified 5% CO2 atmosphere. To each well, 10 μl of MTT (0.5 mg/ml final concentration) was added and the plates were incubated at 37° C. for 4 hours to allow MTT to form formazan crystals by reacting with metabolically active cells . The formazan crystals were solubilized overnight at 37° C. in a solution containing 10% SDS in 0.01 M HCl. The absorbence of each well was measured in a microplate reader (Labsystems) at 540 nm and a reference wavelength of 690 nm. To translate the OD 540 values into the number of live cells in each well, the OD540 values were compared to those on standard OD540-versus-cell number curves generated for each cell line. The percent survival was calculated using the formula: % survival=Live cell number[test]×100/Live cell number[control].
(§5) IC50 values were calculated by non-linear regression analysis using an Graphpad Prism software version 2.0 (Graphpad Software, Inc., San Diego, Calif.).
(§6) The following human cancer cell lines were used in the present study: BT-20, breast cancer; MDA-MB-231, breast cancer; PC3, prostate cancer; U87 and U373, glioblastoma; NALM-6, B-lineage acute lymphoblastic leukemia. These cell lines were obtained from American Type Culture Collection (Manassas, Va.) and maintained as continuous cell lines in Dulbecco's modified Eagles's medium supplemented with 10% fetal bovine serum and antibiotics.

Another test deals with NALM-6. As to the kind of experiment: MTT assay. The format is cell-based, human. As to conditions: Homo sapiens, 24-36 hours. The procedure:
as §3, §4, §5, §6

The subject of a further test is PC-3. As to the kind of experiment: MTT assay. Particulars: Homo sapiens, 24-36 hours. The format is cell-based, human. Here is the method:
as §3, §4, §5, §6

A further test concerns U87. Put plainly: MTT assay. As to conditions: Homo sapiens, U-87 MG, 24-36 hours. The test is classed as cell-based, human. Here is the method:
as §3, §4, §5, §6

The test system of the next test is SQ20B. Put plainly: MTT assay. The test is classed as cell-based, human. Particulars: Homo sapiens, 24-36 hours. The procedure:
as §3, §4, §5

Test [2] concerns zebrafish (ZF) (Danio rerio) embryos. Put plainly: Zebrafish embryo model, cell division and development. The test is classed as in vivo. The procedure:
ZF eggs were removed from their chorions by mild digestion in 1% Trypsin-EDTA (Sigma) for 10 minutes at 28.5° C. (Standard temperature—ST), washed three times in “egg water”^15-16 and twice in “embryonic medium” (EM)^15-16. The dechorionated two-cell stage cleaving eggs/embryos were transferred to the 24-well plastic cell culture plates (Costar, City, State) filled with EM or Hank's Balanced Salt Saline (HBSS, Gibco, City, State). Dechorionated embryos (10-12 per well) were exposed to the drugs at a constant ST for 0.5-24 hours. The final volume of the media in each well was 500 μL. All reference as well as test compounds were used at concentrations ranging from 10 μM to 4 mM. The title compounds were dissolved in DMSO and then diluted serially with the incubation medium. The final concentration of DMSO in the wells was 1.2% (with the exception of the etoposide treatment where it was 3%). The sham-treated control embryos were incubated in EM or HBSS in the presence of 1.2% (or 3%) DMSO.
Observations of cell division and development of the ZF embryos were carried out using a SMZ-10A stereo microscope (Nicon, City, State), once every 30 minutes within the first 3 hours of incubation and at 6, 12 and 24 hours, as well. […] The stereo microscope was fitted with a specially designed transparent heating tray in order to keep embryos at ST during observations. Pictures of the embryos were taken with a H-III Photomicrographic System (Nicon) using Ektachrome 64X film (Kodak, Rochester, N.Y.).

Some results are limits rather than exact numbers.

T1 sequence (P81947 whole entry): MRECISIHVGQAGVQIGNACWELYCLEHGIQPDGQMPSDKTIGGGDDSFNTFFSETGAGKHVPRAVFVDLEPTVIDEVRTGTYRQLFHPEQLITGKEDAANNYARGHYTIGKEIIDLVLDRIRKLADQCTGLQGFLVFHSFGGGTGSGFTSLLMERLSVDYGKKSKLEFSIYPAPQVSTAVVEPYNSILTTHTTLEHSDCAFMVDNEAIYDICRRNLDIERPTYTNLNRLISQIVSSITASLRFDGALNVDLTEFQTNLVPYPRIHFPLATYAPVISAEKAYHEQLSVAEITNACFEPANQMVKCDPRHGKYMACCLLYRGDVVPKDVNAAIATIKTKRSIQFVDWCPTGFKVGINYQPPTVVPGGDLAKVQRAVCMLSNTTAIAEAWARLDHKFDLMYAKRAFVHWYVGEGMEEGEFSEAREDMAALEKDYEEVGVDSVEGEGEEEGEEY
T1 sequence (Q6B856 whole entry): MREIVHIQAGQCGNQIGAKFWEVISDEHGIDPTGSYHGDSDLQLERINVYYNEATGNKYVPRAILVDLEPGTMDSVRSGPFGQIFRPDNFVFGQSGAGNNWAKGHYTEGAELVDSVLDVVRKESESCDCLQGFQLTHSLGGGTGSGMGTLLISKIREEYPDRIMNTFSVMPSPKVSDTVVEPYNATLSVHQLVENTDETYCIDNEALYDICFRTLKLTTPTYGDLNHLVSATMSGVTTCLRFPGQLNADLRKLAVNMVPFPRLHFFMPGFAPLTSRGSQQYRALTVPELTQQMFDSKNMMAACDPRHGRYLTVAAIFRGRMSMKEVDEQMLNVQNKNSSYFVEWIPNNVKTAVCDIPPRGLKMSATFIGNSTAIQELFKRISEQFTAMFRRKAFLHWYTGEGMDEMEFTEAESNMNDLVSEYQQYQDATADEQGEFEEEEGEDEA

With `C=CCC[C@H](O)[C@H]1CC[C@H]([C@H](O)CCCCCCCCCCCC)O1` [COBRA-2], on Bovine brain tubulin, the “effect on GTP-dependent tubulin polymerization (turbidity)” value was “caused partial depolymerization of tubulin and inhibited its polymerization in the presence of GTP”. Moreover, the “cell morphology / microtubules” value in test [1] (BT-20, 100-200 μM) was “cell death with nuclear fragmentation and complete loss of microtubule formation”; in [1] (BT-20, 24 hours (FIG. 10B)), “the cells shrink and the microtubules become less organized”; in the test with U373 brain tumor cells (U373, 100-200 μM), “cell death with nuclear fragmentation and complete loss of microtubule formation”; with U373 brain tumor cells (U373, 24 hours (FIG. 10E)), “the cells shrink and the microtubules become less organized”.
Regarding `CCCCCCCCCCCC[C@@H](O)[C@H]1CC[C@H]([C@@H](O)CO)O1` [COBRA-4], the “effect on GTP-dependent tubulin polymerization (turbidity)” value on Bovine brain tubulin was “caused partial depolymerization of tubulin and completely inhibited its polymerization in the presence of GTP”.
Regarding `OC(CSOOc1ccccc1)C1CCC(COCc2ccccc2)O1` (centres unmarked) [Compound 8.2], the IC50 in the test with MDA-MB-231, with NALM-6, with PC-3, in the test on U87 and in the test with SQ20B was more than 250 µM throughout.
For the compound `C[C@@H](O)[C@H]1CC[C@H](CO)O1` [Compound 8.3], the IC50 in the test on MDA-MB-231, with NALM-6, with PC-3, with U87 and in the test on SQ20B was more than 250 µM throughout.
Consider `OCC(O)[C@H]1CC[C@H](CO)O1` (some centres unmarked) [Compound 8.4], for which the IC50 in the test with MDA-MB-231, in the test with NALM-6, in the test on PC-3, with U87 and with SQ20B was more than 250 µM throughout.
Regarding `CN(Cc1cnc2nc(N)nc(N)c2n1)c1ccc(C(=O)N[C@@H](CCC(=O)O)C(=O)O)cc1` [methotrexate, reference compound], in test [2] (1-4 mM), the effect on gastrulation result is recorded as “failed to gastrulate”. Moreover, in test [2] (by 4 hours of incubation), the “effect on cell division during cleavage and blastula stages” value was “no visible effect”.
`CC(=O)O[C@H]1C(=O)[C@@]2(C)[C@H]([C@H](OC(=O)c3ccccc3)[C@]3(O)C[C@H](OC(=O)[C@H](O)[C@@H](NC(=O)c4ccccc4)c4ccccc4)C(C)=C1C3(C)C)[C@]1(OC(C)=O)CO[C@@H]1C[C@@H]2O` [paclitaxel, reference compound]: the “effect on ZF embryos” value in test [2] (400 μM in EM) is “developmental abnormalities after 90 minutes of exposure”.
As to `CC[C@]1(O)C[C@H]2CN(CCc3c([nH]c4ccccc34)[C@@](C(=O)OC)(c3cc4c(cc3OC)N(C=O)[C@H]3[C@@](O)(C(=O)OC)[C@H](OC(C)=O)[C@]5(CC)C=CCN6CC[C@]43[C@@H]65)C2)C1` [vincristine, reference compound], in [2] (100 μM in EM or HBSS), the “effect on ZF embryos” value was “rapid total cell division blockade, cell fusion and developmental arrest”; the “time until two-cell stage embryos stopped cleaving” value was not above 15 min.
